The results in this text go back to PubChem BioAssay (NCI).

Test systems include SW-620 colon; IGROV1 ovarian; SF-295 CNS; RPMI-8226 leukemia; OVCAR-5 ovarian; NCI-H23 lung; ACHN renal; MCF7 breast; NCI-H460 lung; T-47D breast.
Common to all, as to test: NCI anticancer screen, dose series, 48 h

Values joined by “and” are separate entries in the source; they are usually repeats but may differ in a detail not shown here. Identical values can stand only once.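 Compound exposure: 48 hours, 5 concentrations, 96-well plates. At the GI50, growth is halved. The concentration for full growth arrest is given as TGI.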

On to `COc1ccc(-c2ccc(/C=N/n3c(C)nn(CN4CCN(C)CC4)c3=S)o2)c([N+](=O)[O-])c1`, for which the GI50 in the assay on SW-620 colon was greater than 100 µM; with IGROV1 ovarian, 63.4 µM; in the assay on SF-295 CNS, 18.3 µM; in the assay with RPMI-8226 leukemia it was 20.6 µM; with OVCAR-5 ovarian it was 62.6 µM; in the assay on NCI-H23 lung, 26.1 µM. Also, the GI50 in the assay on ACHN renal was 69.4 µM; with MCF7 breast it was 30.4 µM; in the assay on NCI-H460 lung it was 29.3 µM; with T-47D breast, 45.6 µM. Moreover, the TGI with SW-620 colon was greater than 100 µM; in the assay with IGROV1 ovarian, greater than 100 µM; in the assay with SF-295 CNS, 48.2 µM; in the assay on RPMI-8226 leukemia, 64.6 µM; in the assay on OVCAR-5 ovarian it was greater than 100 µM; in the assay on NCI-H23 lung, 92.5 µM. Moreover, the TGI with ACHN renal, in the assay with MCF7 breast, in the assay with NCI-H460 lung and in the assay on T-47D breast was greater than 100 µM each time.

With `COc1cnc2c(c1)C(=O)c1c-2n(CCCN2CCCC2)c(=O)c2cc(F)ccc12`, the GI50 was 0.199 µM in the assay with SW-620 colon; 0.363 µM in the assay on IGROV1 ovarian; 0.202 µM in the assay with SF-295 CNS; 0.123 µM in the assay with RPMI-8226 leukemia; 0.41 µM with OVCAR-5 ovarian; 0.331 µM in the assay with NCI-H23 lung. Moreover, the GI50 was 0.155 µM with ACHN renal, 0.0482 µM with MCF7 breast, 0.0603 µM in the assay on NCI-H460 lung and 0.218 µM in the assay on T-47D breast. Besides, the TGI with SW-620 colon worked out at 2.27 µM; in the assay on IGROV1 ovarian, 3.34 µM; in the assay with SF-295 CNS, 0.755 µM; in the assay with RPMI-8226 leukemia, 0.643 µM; with OVCAR-5 ovarian, 3.23 µM; with NCI-H23 lung it was 2.4 µM. In addition, the TGI worked out at 0.461 µM in the assay with ACHN renal, 3.88 µM in the assay on MCF7 breast, 0.3 µM in the assay on NCI-H460 lung and 10.2 µM with T-47D breast.

For the compound `COc1cc2nc3cc([N+](=O)[O-])ccc3c(NCCCNCC(C)(C)O)c2cc1OC`, the GI50 in the assay on SW-620 colon is 0.301 µM; in the assay on IGROV1 ovarian, 0.35 µM; in the assay with SF-295 CNS, 0.501 µM; in the assay on RPMI-8226 leukemia, 0.565 µM; with OVCAR-5 ovarian, 0.465 µM; in the assay on NCI-H23 lung it was 0.196 µM. Also, the GI50 with ACHN renal is 0.576 µM; in the assay with MCF7 breast, 0.208 µM; with NCI-H460 lung, 0.299 µM; in the assay with T-47D breast, 0.237 µM. For the same compound, the TGI worked out at 1.51 µM with SW-620 colon; 1.3 µM with IGROV1 ovarian; 2.43 µM with SF-295 CNS; 4.01 µM with RPMI-8226 leukemia; 3.39 µM in the assay on OVCAR-5 ovarian; 0.543 µM in the assay on NCI-H23 lung. Moreover, the TGI in the assay on ACHN renal was determined as 6.07 µM; in the assay on MCF7 breast, 1.16 µM; with NCI-H460 lung, 1.04 µM; in the assay on T-47D breast it was 0.756 µM.

As for `O=C(O)c1ccc2c(c1)nc(Nc1cccc(Cl)c1)c1ccncc12`, the GI50 was 3.1 µM and 3.97 µM in the assay with SW-620 colon; 3.56 µM and 2.68 µM with IGROV1 ovarian; 2.74 µM and 3.17 µM with SF-295 CNS; 2.68 µM and 2.5 µM in the assay with RPMI-8226 leukemia; 3.2 µM and 4.53 µM in the assay on OVCAR-5 ovarian; 2.37 µM and 2.98 µM in the assay on NCI-H23 lung. Also, the GI50 in the assay with ACHN renal is 3.04 µM and 3.51 µM; in the assay with MCF7 breast, 2.22 µM and 2.57 µM; with NCI-H460 lung, 3.48 µM and 4.32 µM; with T-47D breast it was 2.83 µM and 1.33 µM. For the same compound, the TGI in the assay with SW-620 colon was 26.5 µM and > 10 µM; in the assay with SF-295 CNS, greater than 42.9 µM; in the assay on RPMI-8226 leukemia it was 8.86 µM and 9.44 µM; with OVCAR-5 ovarian it was 38.7 µM and > 10 µM; in the assay on NCI-H23 lung it was 8.29 µM and > 10 µM; with ACHN renal it was greater than 100 µM. The TGI in the assay on MCF7 breast is greater than 100 µM; with NCI-H460 lung, 25.1 µM and > 10 µM; in the assay on T-47D breast, > 39.1 µM and 5.71 µM.

Regarding `O=C(CCCCCCSc1nc(-c2ccc(Cl)cc2)cc(-c2ccc(Cl)cc2)n1)NO`, the GI50 in the assay on SW-620 colon was 1.71 µM; in the assay on IGROV1 ovarian it was 1.7 µM; in the assay on SF-295 CNS it was 2.34 µM; in the assay on RPMI-8226 leukemia, 1.7 µM; with OVCAR-5 ovarian, 1.55 µM; in the assay on NCI-H23 lung it was 1.32 µM. Moreover, the GI50 with ACHN renal was 1.21 µM; with MCF7 breast it was 1.44 µM; in the assay on NCI-H460 lung it was 1.41 µM; with T-47D breast, 1.39 µM. Also, the TGI with SW-620 colon is 24.2 µM; in the assay with IGROV1 ovarian it was 12.8 µM; with SF-295 CNS it was 9.84 µM; in the assay with RPMI-8226 leukemia, greater than 50 µM; in the assay on OVCAR-5 ovarian, 5.63 µM; in the assay with NCI-H23 lung, 4.33 µM. Also, the TGI with ACHN renal is 3.59 µM; in the assay on MCF7 breast, greater than 50 µM; in the assay on NCI-H460 lung, 5.93 µM; in the assay on T-47D breast it was 9.13 µM.

Consider `CCc1nc(N)nc(N)c1-c1ccc(NCCc2ccccc2)c([N+](=O)[O-])c1`, for which the TGI with SW-620 colon was greater than 79.4 µM; with IGROV1 ovarian it was 47.8 µM; in the assay with SF-295 CNS it was 32.9 µM; in the assay with RPMI-8226 leukemia, 7.35 µM; in the assay with OVCAR-5 ovarian, greater than 73.4 µM; in the assay with NCI-H23 lung, greater than 54.1 µM. For the same compound, the TGI in the assay with ACHN renal was 37 µM; in the assay with MCF7 breast it was 33.6 µM; in the assay on NCI-H460 lung, greater than 53.9 µM; in the assay on T-47D breast, greater than 52.8 µM.

`Cc1cc(C)nc(SC2=C(Nc3cccc(Cl)c3C)C(=O)N(Cc3ccccc3)C2=O)n1`: the GI50 in the assay with SW-620 colon, in the assay on IGROV1 ovarian, in the assay with SF-295 CNS, in the assay with RPMI-8226 leukemia, in the assay on OVCAR-5 ovarian and in the assay on NCI-H23 lung was greater than 160 µM each time. Moreover, the GI50 with ACHN renal, in the assay on MCF7 breast, in the assay on NCI-H460 lung and in the assay with T-47D breast was greater than 160 µM in each case. Also, the TGI with SW-620 colon, with IGROV1 ovarian, with SF-295 CNS, with RPMI-8226 leukemia, with OVCAR-5 ovarian and with NCI-H23 lung was greater than 160 µM each time. The TGI in the assay on ACHN renal, in the assay with MCF7 breast, in the assay on NCI-H460 lung and in the assay on T-47D breast was greater than 160 µM throughout.

As to `O=C(c1ccccc1)c1nc2ccc(C(F)(F)F)cc2[n+]([O-])c1C(F)(F)F`, the GI50 in the assay with SW-620 colon was 47.5 µM; in the assay on IGROV1 ovarian, 16.4 µM; in the assay with SF-295 CNS it was 19.7 µM; with RPMI-8226 leukemia, 16.4 µM; in the assay with OVCAR-5 ovarian, 34.6 µM; in the assay with NCI-H23 lung it was 29.1 µM. Further, the GI50 with ACHN renal was 39.3 µM; with MCF7 breast it was 36 µM; in the assay with NCI-H460 lung it was 23.5 µM; in the assay on T-47D breast, 20.4 µM. Besides, the TGI in the assay with SW-620 colon is greater than 100 µM; in the assay with IGROV1 ovarian, 52.2 µM; in the assay on SF-295 CNS, greater than 100 µM; in the assay with RPMI-8226 leukemia it was greater than 100 µM; in the assay with OVCAR-5 ovarian it was greater than 100 µM; in the assay on NCI-H23 lung it was greater than 100 µM. The TGI with ACHN renal, with MCF7 breast, in the assay on NCI-H460 lung and with T-47D breast was greater than 100 µM throughout.
